The structures appear in SMILES notation. Structures can show the parent of a compound that is named as a salt. Where two headings read alike, the source gives them in different places.

15 molecules from PMC8286840, “Identifying SARS-CoV-2 antiviral compounds by screening for small molecule inhibitors of Nsp3 papain-like protease” (Biochemical Journal, 2021) can be followed below.

Test [1] concerns the target T1, SARS-CoV-2 PLpro (nsp3 1564–1878) (Severe acute respiratory syndrome coronavirus 2, UniProt P0DTD1). Kind of test: biochemical. Details: FRET-quenched peptide (Pro3) cleavage by PLpro, 10 min pre-incubation, slope over 20 min, normalised to no-compound control. The settings on record: low concentration screen, read-out: % of control remaining.
Test [2] has as its target T1, SARS-CoV-2 PLpro (nsp3 1564–1878). Kind of test: biochemical. The settings on record: high concentration screen, read-out: % of control remaining. More on the design: FRET-quenched peptide (Pro3) cleavage by PLpro, 10 min pre-incubation, slope over 20 min, normalised to no-compound control.

Consider `O=C(/C=C/c1ccc(O)c(O)c1)O[C@H](Cc1ccc(O)c(O)c1)C(=O)O` [Rosmarinic acid], for which the remaining activity at 1.25 µM in test [1] (Well no.=3940) came to 102%; in test [1] (Well no.=4516), 95%. Moreover, the remaining activity at 3.75 µM in test [2] (Well no.=3140) is 103%; in test [2] (Well no.=3940) it was 99.3%; in test [2] (Well no.=4516), 94.6%.
As to `Cc1ccc(N(CC2=NCCN2)c2cccc(O)c2)cc1` [Phentolamine (mesylate)], in test [1] (Well no.=7326), the remaining activity at 1.25 µM came out at 93.7%. For the same molecule, the remaining activity at 3.75 µM in test [2] (Well no.=7326) came out at 90%.
For `C[C@]12CCC(=O)C=C1CC[C@@H]1[C@@H]2[C@@H](O)C[C@@]2(C)[C@H]1CC[C@]2(O)C(=O)CO` [Hydrocortisone], the remaining activity at 1.25 µM in test [1] (Well no.=562) worked out at 101%; in test [1] (Well no.=2212), 93%; in test [1] (Well no.=6439), 99.3%; in test [1] (Well no.=7331), 93.2%. Moreover, the remaining activity at 3.75 µM in test [2] (Well no.=562) came out at 101%; in test [2] (Well no.=2212), 96%; in test [2] (Well no.=6439) it was 102%; in test [2] (Well no.=7331), 93.7%.
`C=CC[C@@H]1/C=C(\C)C[C@H](C)C[C@H](OC)[C@H]2O[C@@](O)(C(=O)C(=O)N3CCCC[C@H]3C(=O)O[C@H](/C(C)=C/[C@@H]3CC[C@@H](O)[C@H](OC)C3)[C@H](C)[C@@H](O)CC1=O)[C@H](C)C[C@@H]2OC` [FK-506 (Tacrolimus)]: the remaining activity at 1.25 µM in test [1] (Well no.=5168) was determined as 94%. For the same molecule, the remaining activity at 3.75 µM in test [2] (Well no.=5168) came out at 97.7%.
Turning to `COc1ccc(/C=C/C(=O)Nc2ccccc2C(=O)O)cc1OC` [Tranilast (trans-)], in test [1] (Well no.=7917), the remaining activity at 1.25 µM amounted to 92.9%. Besides, the remaining activity at 3.75 µM in test [2] (Well no.=7917) was determined as 92%.
With `COc1cc(Nc2c(C#N)cnc3cc(OCCCN4CCN(C)CC4)c(OC)cc23)c(Cl)cc1Cl` [Bosutinib], the remaining activity at 1.25 µM in test [1] (Well no.=2883) was 97.8%. For the same molecule, the remaining activity at 3.75 µM in test [2] (Well no.=2883) came to 100%.
Turning to `CC1(C)S[C@@H]2[C@H](NC(=O)[C@H](N)c3ccc(O)cc3)C(=O)N2[C@H]1C(=O)O` [Amoxicillin], the remaining activity at 1.25 µM was determined as 98.8% in test [1] (Well no.=2000) and 97% in test [1] (Well no.=7654). Further, the remaining activity at 3.75 µM came out at 100% in test [2] (Well no.=2000) and 97.6% in test [2] (Well no.=7654).
As to `O=C(CCN1CCN(C(=O)OCc2cc(Cl)cc(Cl)c2)CC1)c1ccc2[nH]c(=O)oc2c1` [PF-8380], in test [1] (Well no.=7798), the remaining activity at 1.25 µM is 104%. Further, in test [2] (Well no.=7798), the remaining activity at 3.75 µM came out at 98.3%.
With `COc1ccc(CN2CCN(C(c3ccc(F)cc3)c3ccc(F)cc3)CC2)c(OC)c1OC` [Lomerizine], the remaining activity at 1.25 µM in test [1] (Well no.=1941) was found to be 98.3%. Further, the remaining activity at 3.75 µM in test [2] (Well no.=1941) stood at 100%.
Regarding `COc1cc2nc(N3CCN(C(=O)C4COc5ccccc5O4)CC3)nc(N)c2cc1OC` (stereo not shown) [Doxazosin mesylate], the remaining activity at 1.25 µM in test [1] (Well no.=730) stood at 98.2%. In addition, in test [2] (Well no.=730), the remaining activity at 3.75 µM amounted to 93.7%.
For the molecule `NS(=O)(=O)c1ccc(NC(=O)Nc2ccc(F)cc2)cc1` [U-104], the remaining activity at 1.25 µM in test [1] (Well no.=8246) is 98%; in test [1] (Well no.=8566), 103%. Also, the remaining activity at 3.75 µM in test [2] (Well no.=8246) was 93.1%; in test [2] (Well no.=8566), 103%.
For `CC(C)[C@@]1(NC(=O)[C@@H]2C[C@@H]3c4cccc5[nH]cc(c45)C[C@H]3N(C)C2)O[C@@]2(O)[C@@H]3CCCN3C(=O)[C@H](Cc3ccccc3)N2C1=O` [Dihydroergocristine], the remaining activity at 1.25 µM in test [1] (Well no.=2098) came to 104%. Moreover, the remaining activity at 3.75 µM in test [2] (Well no.=2098) amounted to 102%.
With `O=c1ccn([C@@H]2O[C@H](COP(=O)(O)OP(=O)(O)OP(=O)(O)O)[C@@H](O)[C@H]2O)c(=O)[nH]1` [Uridine triphosphate], the remaining activity at 1.25 µM in test [1] (Well no.=8933) amounted to 95.1%. The remaining activity at 3.75 µM in test [2] (Well no.=8933) amounted to 97.6%.
Consider `NCC(O)c1ccc(O)cc1` (stereo not shown) [Octopamine (hydrochloride)], for which, in test [1] (Well no.=6713), the remaining activity at 1.25 µM was 98.8%. The remaining activity at 3.75 µM in test [2] (Well no.=6713) came to 98.6%.
For the molecule `COc1ccc(CN(CCN(C)C)c2ccccn2)cc1` [Mepyramine maleate], the remaining activity at 1.25 µM in test [1] (Well no.=1843) worked out at 98.2%. The remaining activity at 3.75 µM in test [2] (Well no.=1843) came to 98.2%.
